Experimental data as given in the NIST ThermoML archive (doi:10.1021/je400423u).

Key:
[1] = 101 kPa, Liquid; for viscosity: Falling or rolling sphere viscometry; for mass density: Vibrating tube method
[2] = xn = mol fraction of the nth substance listed; conditions: 101 kPa, Liquid, x1 = 1; for viscosity: Falling or rolling sphere viscometry; for mass density: Vibrating tube method

CC(C)CO [2-methyl-1-propanol]
[1]
Conditions	mass density [kg/m3]	viscosity [mPa·s]
308.15 K	790.12	2.382
313.15 K	786.12	2.116
318.15 K	782.06	1.861
323.15 K	777.93	1.602
328.15 K	773.73	–
333.15 K	769.44	–
338.15 K	765.07	–
343.15 K	760.61	–

CC(C)(C)O [2-methylpropan-2-ol]
[1]
Conditions	mass density [kg/m3]	viscosity [mPa·s]
308.15 K	770.36	2.589
313.15 K	765.07	2.089
318.15 K	759.67	1.69
323.15 K	754.19	1.409
328.15 K	748.62	–
333.15 K	742.95	–
338.15 K	737.19	–
343.15 K	731.31	–

CCC(C)O (stereo not given) [butan-2-ol]
[1]
Conditions	mass density [kg/m3]	viscosity [mPa·s]
308.15 K	794.05	2.128
313.15 K	789.65	1.822
318.15 K	785.15	1.533
323.15 K	780.55	1.315
328.15 K	775.83	–
333.15 K	770.99	1.025
338.15 K	766.03	–
343.15 K	760.96	–

CCC(C)O (stereo not given) [butan-2-ol] + CC(C)CO
[2]
Conditions	mass density [kg/m3]	viscosity [mPa·s]
308.15 K	794.05	2.128
313.15 K	789.65	1.822
318.15 K	785.15	1.533
323.15 K	780.55	1.315
328.15 K	775.83	–
333.15 K	770.99	1.025
338.15 K	766.03	–
343.15 K	760.96	–
